Laboratory results from patent publication US7897620B2, “Methods of using anti-inflammatory compounds” (Cambridge Enterprise Limited, priority 2007, dated 2011).

What was measured:
[1] = Water solubility (observation); type: physicochemical
[2] = Pharmacokinetics following a single dose in rat (LC-MS/MS of blood, one-compartment model); type: in vivo; settings: single oral dose
Procedure: Compounds were administered as a single dose (either 1 mg/kg bodyweight in 5% DMSO via the intravenous route or 3 mg/kg in 1% carboxymethylcellulose via the oral route) to three adult rats (using different rats for each compound and each route of administration).
Blood was then sampled at various time points (including just prior to dose administration) out to 24 hrs post dose, and the level of the various compounds was assessed using a validated LC-MS/MS assay. Briefly, 3-5 μl of the deproteinised sample was applied to a Waters Atlantis (C18 20×2.1 mm, 3 μm bead size) reverse phase chromatography column equilibrated in 0.1% formic acid in 95:5 water:actetonitrile. Over 3.5 minutes bound material was gradient eluted reaching 0.1% formic acid in 5:95 water:acetonitrile, followed by a step gradient back to 0.1% formic acid in 95:5 water:acetonitrile. The column eluent was then directed to an Applied Biosystems API 4000/3200 QTrap MS/MS mass spectrometer, with a Turbolonspray™ ion source operating in positive ion mode. The interface temperature was set at 650° C., with a 40 ms dwell time for each MRM transition, monitoring the following ions:
The internal standard in each determination was the related compound (S)-3-(2′,2′-dimethylpropanoylamino)-caprolactam, which was spiked into the sample prior to deproteinization. The lower limit of quantitation (LLOQ) for this assay was 2.4 ng/ml for each compound except (I′), where it was 38.1 ng/ml.
Following LC-MS/MS analysis of each collected sample, the pharmacokinetic disposition of the compound was modelled using Kinetica software, a well known software package for such applications.

[3] = Potency in vivo, model not stated; settings: prior art peptides compared
[4] = tested on: chemokine-induced migration; assay: BSCI activity in vitro, chemokine-induced migration (general statements); type: cell-based; settings: prior art peptides compared
[5] = in vivo, cited from earlier work

water solubility [1] | exposure following a single oral dose, fold higher than the other lactam BSCIs tested [2] | Compound | fold less potent in vivo [3] | fold less potent in vitro [4] | half-life period of clearance from blood plasma ([5]; iv) | oral bioavailability ([5]; po)
significant water solubility | more than 10 fold | CC(C)(C)C(=O)NC1CCCNC1=O (stereo not drawn) [Compound (I), 3-(2′,2′-dimethylpropanoylamino)-tetrahydropyridin-2-one] |  |  |  | 
 |  | c(DCys-DGln-DIle-DTrp-DLys-DGln-DLys-DPro-DAsp-DLeu-DCys)-NH2 [NR58-3.14.3] | > 10,000 fold | > 25 fold | less than 30 minutes | not orally bioavailable
